Data on 8 molecules can be found in patent US20230265167A1, “COMPOSITIONS HAVING NEUROREGENERATIVE APPLICATIONS” (GRIFOLS WORLDWIDE OPERATIONS LIMITED, priority 2020, published 2023).

Entries after “also recorded” stand apart in the source; their conditions may differ. Structures can show the parent of a compound that is named as a salt.

One data set relates to SH-SY5Y cells. As to the kind of experiment: Neurite outgrowth (differentiation) in SH-SY5Y cells, Tubulin Tracker imaging. The format is cell-based, human. As to conditions: for neurite outgrowth or differentiation: FIG. 5. How it is done:
Transferrin is utilized in cell culture and in-vivo to deliver iron as a nutrient to cells. This is typically accomplished through the actions of holo-transferrin (HoloTf) binding to, and endocytosis by, its cognate receptor CD71, the transferrin receptor 1 (TfR1). Transferrin is typically believed to provide cells with iron as a means to promote and sustain metabolic activity. […] Induction of neuronal differentiation was assessed by morphological parameters of neurite formation (a key element typically used as a marker of neuronal differentiation, neuronal health, and function) according to the procedures of Agholme, 2010. J. of Alzheimer's Disease. Vol. 20:1p 069-108; and Dyberg et al., 2017. PNAS Vol 114 (32), E6603-E6612.
Undifferentiated SH-SY5Y cells were seeded into 96 well clear bottom plates in media containing 0.1% FBS. A serum-free base media was utilized as recommended by the supplier for SH-SY5Y cells (Sigma, Cat #94030304-1VL). Twenty-four hours after seeding cells, a 3× stock solution of ApoTf, final concentrations indicated on the x-axis, in serum free base media was added to the cells. ApoTf was obtained and purified from pooled human plasma and dosed at a final concentration of 0.2 mg/mL.
Cells were allowed to differentiate for 6 days. Neurite growth was assessed by imaging and image analysis. At the time of analysis, a 10× solution of Tubulin Tracker (Molecular Probes, T34075) and Hoechst 33342 (Molecular Probes #H3570) nuclear stain was prepared.
Briefly, Tubulin Tracker dissolved in DMSO was diluted 1:1 with Pluronic F-127 and further diluted into HBSS to generate a 10× solution. Hoechst 33342 was added to the HBSS-Tubulin Tracker solution at 10 μg/mL to generate a 10× nuclear stain. The 10× staining solution (10 μL) was added directly to treated assay wells and incubated at 37° C. for 30 minutes. Following incubation, 110 μL of 0.4% Trypan Blue was added directly to assay wells and imaged on a Molecular Devices Nano imaging instrument. Nine images/well were acquired in the blue (Nuclei) and green (Tubulin) fluorescent channels for each image.
After obtaining images, the MetaExpress Neurite Outgrowth analysis module (Molecular Devices) was used to identify cells, cell bodies, and quantify neurites. The total number of neurite branches were divided by the total number of cells imaged to account for different numbers of cells in each test well. The Outgrowth Fold Change was determined by setting the untreated control cells to a value of 1 with all other treatments shown relative to untreated control.
Undifferentiated SH-SY5Y cells were seeded and treated as described in Example 1. Neurite growth was assessed by imaging and image analysis. At the time of analysis, a 10× solution of Tubulin Tracker (Molecular Probes, T34075) and Hoechst 33342 (Molecular Probes #H3570) nuclear stain was prepared. Briefly, Tubulin Tracker dissolved in DMSO was diluted 1:1 with Pluronic F-127 and further diluted into HBSS to generate a 10× solution. Hoechst 33342 was added to the HBSS-Tubulin Tracker solution at 10 μg/mL to generate at 10× nuclear stain. The 10× staining solution (10 μL) was added directly to treated assay wells and incubated at 37° C. for 30 minutes. Following incubation, 110 μL of 0.4% Trypan Blue was added directly to assay wells and imaged on a Molecular Devices Nano imaging instrument. Nine images/well were acquired in the blue (Nuclei) and green (Tubulin) fluorescent channels for each image. After obtaining images, the MetaExpress Neurite Outgrowth analysis module (Molecular Devices) was used to identify cell bodies and quantify neurites. The total number of neurite branches were divided by the total number of cells imaged to account for different numbers of cells. The Outgrowth Fold Change was determined by setting the untreated control to a value of 1 with all other treatments shown relative to untreated control. ApoTf was obtained and purified from pooled human plasma and dosed at a final concentration of 0.2 mg/mL. […]

In another data set the test system is HIF-1α. To be noted: cited from earlier work.
The nature of data set [1]: Iron saturation by ICP-AES. It counts as physicochemical. The text has this: The skilled person will appreciate that transferrin iron saturation levels can be readily determined without undue burden by quantifying the total iron levels in a sample having a known transferrin concentration. The total iron levels in sample can be measured by any one of a number of methods know by those of skill in the art. Suitable examples include: • Colorimetric assays—Iron is quantitated by measuring the intensity of the violet complex formed in the reaction between ferrozine and Fe^2+ in acetate buffer at 562 nm. Thiourea or other chemicals can be added to complex contaminant metals such Cu^2+, which can also bind with ferrozine and yield falsely elevated iron values. See Ceriotti et al., Improved direct specific determination of serum iron and total iron-binding capacity Clin Chem. 1980, 26(2), 327-31, the contents of which are incorporated herein by reference. • Inductively Coupled Plasma Atomic Emission Spectroscopy (ICP-AES)—is an emission spectroscopy technique that quantifies the mass percentage of metals in a sample. ICP-AES is based on the excitation of metal atoms/ions in the sample using a plasma (an ionized gas consisting of positive ions and free electrons) and analyzing the emission wavelength of the electromagnetic radiation, which is typical of that particular metal. Even though the technique is a standard analytical technique within common general knowledge of the skilled person, further information on ICP-AES can be found in Manley et al., Simultaneous Cu-, Fe-, and Zn-specific detection of metalloproteins contained in rabbit plasma by size-exclusion chromatography-inductively coupled plasma atomic emission spectroscopy. J Biol Inorg Chem. 2009, 14, 61-74, the contents of which are incorporated herein by reference.
The preferred method of determining the iron content of a sample for the purposes of the therapeutic method of the present invention is ICP-AES. The iron saturation of transferrin is then calculated based on the transferrin protein concentration, total iron content of the sample, and the fact that wild type transferrin has two iron-binding sites. Wild type human transferrin (molecular weight 79,750) can bind two iron atoms such that a sample containing 1 g of transferrin would be 100% saturated by 1.4 mg of iron.
Protein purity was determined by SDS-PAGE. Iron saturation levels were determined using ICP-AES in accordance with the procedures outlined in Manley et al., J Biol Inorg Chem (2009) 14:61-74, the contents of which are incorporated herein by reference.

`CC(=O)N(O)CCCCCNC(=O)CCC(=O)N(O)CCCCCNC(=O)CCC(=O)N(O)CCCCCN` [DFO, Deferoxamine mesylate, reference compound]: the “neurite outgrowth / differentiation versus concentration” value with SH-SY5Y cells (FIG. 3A, DFO versus ApoTf) was “little neurite formation beyond that concentration”. `O=C(O)CNC(=O)c1c(O)c2ccccc2n(Cc2ccccc2)c1=O` [IOX2, N-[[1,2-Dihydro-4-hydroxy-2-oxo-1-(phenylmethyl)-3-quinolinyl]carbonyl]glycine, reference compound]: the “neurite outgrowth or differentiation” value is “no neurite outgrowth or differentiation was observed” in the data set on SH-SY5Y cells and “no effect was observable” with SH-SY5Y cells (4 μM). For the same molecule, the “concentration inducing up-regulation of HIF-1α” value with HIF-1α (undifferentiated SH-SY5Y) is 1 µM. As for `C[C@@H](N)[C@H]1CC[C@H](C(=O)Nc2ccncc2)CC1.Cl.Cl` [Y-27632, trans-4-[(1R)-1-Aminoethyl]-N-4-pyridinylcyclohexanecarboxamide dihydrochloride, reference compound], the “neurogenic effect, alone” value in the data set on SH-SY5Y cells (FIG. 8, 50 μM) is on record as “strongly neurogenic”. With “ApoTransferrin A: ApoTf preparation, Grifols - prepared in house”, the “Iron Saturation (%)” value in data set [1] is 0.27%. Still for that read-out and setting: then “ApoTransferrin B: ApoTf preparation, Grifols - prepared in house”, with 0.59%.

On to “ApoTransferrin C: ApoTf preparation, Grifols - prepared in house”, for which, in data set [1], the “Iron Saturation (%)” value was determined as 0.24%. As for “HoloTransferrin: the iron-saturated form of transferrin, purified from pooled human plasma”, the “neurogenesis / differentiation of SH-SY5Y” value in the data set with SH-SY5Y cells (FIG. 4, proteins at 0.2 mg/mL, listed as HoloTf) is reported as “unable to induce differentiation; also recorded: lack of neurogenesis”. Further, in the data set on HIF-1α (reported in US2016008437), the HIF-1α production result is listed as “can induce HIF-1α production”. Further, the “Iron Saturation (%)” value in data set [1] was 100%. On to “recombinant ApoTf: recombinant wild-type human transferrin, SEQ ID NO: 1, expressed in 293-6E cells”, for which the “neurogenesis (neurite outgrowth) of SH-SY5Y” value with SH-SY5Y cells (FIG. 3B, proteins at 0.2 mg/mL) was “did induce neurogenesis”.
